The record followed here is US7268154B2, “Substituted triazole compounds” (Hoffman-La Roche Inc., priority 2005, dated 2007).

Each structure is given as a SMILES string.

The assay deals with T1, NK-3 receptor (HEK293 stably expressing NK3) (Homo sapiens, UniProt P29371).
T1 construct: expressed in transfected cells
T1 sequence (P29371 1-465): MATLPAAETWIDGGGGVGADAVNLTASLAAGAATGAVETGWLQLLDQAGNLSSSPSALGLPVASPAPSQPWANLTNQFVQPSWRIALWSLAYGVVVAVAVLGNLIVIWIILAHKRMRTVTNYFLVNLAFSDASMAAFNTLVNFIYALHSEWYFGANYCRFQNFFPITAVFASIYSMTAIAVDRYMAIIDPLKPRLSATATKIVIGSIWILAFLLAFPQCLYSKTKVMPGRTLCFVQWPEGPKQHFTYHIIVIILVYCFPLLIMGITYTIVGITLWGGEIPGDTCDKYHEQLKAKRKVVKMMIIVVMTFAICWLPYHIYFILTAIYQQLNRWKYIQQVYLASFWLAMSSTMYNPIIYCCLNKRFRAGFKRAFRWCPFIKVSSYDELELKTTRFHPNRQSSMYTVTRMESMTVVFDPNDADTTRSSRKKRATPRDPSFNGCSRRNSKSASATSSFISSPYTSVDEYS
Briefly: Calcium mobilization assay (FLIPR): enhancement of the Neurokinin B agonist response. The format is cell-based. The note with it: for EC50: agonist Neurokinin B with or without enhancer, Fluo-4 fluorescence, read-out: EC50 (efficacy as allosteric positive modulator of NK-3 receptor); for fold increase of the Neurokinin B agonistic effect: value in parentheses after EC50. How it is done: Calcium mobilization assay: HEK293 stably expressing NK3 were seeded at a density of 50,000 cells into poly-D-lysine coated 96-well blackwall, clear-bottom microtiter plates (Becton Dickinson Labware, Bedford, Mass.). One day later, the medium was removed, and 100 μl loading medium [HBSS without phenol red, supplemented with 20 mM HEPES-acid, and 2 μM Fluo-4AM solubilized in 0.5 mM Pluronic F-127/DMSO (Molecular Probes, Leiden, The Netherlands)] was added. Cells were loaded for 1 h at 37° C., washed twice with 150 μl assay buffer (loading buffer without Fluo-4 AM), and then 260 μl assay buffer was added. Cells were further pre-incubated at room temperature before adding the agonist Neurokinin B with or without enhancer in 50 μl assay buffer and then measured on a T-channel fluorimetric imaging plate reader (FLIPR, Molecular Devices, Sunnyvale, Calif.). Maximum change in fluorescence over baseline was used to determine agonist response.
The efficacy as allosteric positive modulators of neurokinin 3 (NK-3) receptors is given in the table below as EC50 and fold increase of the Neurokinin B agonistic effect. The EC50 of preferred compounds is <5.0 μM.
A general note: Calcium assays in cells follow changes in intracellular calcium, usually with a dye or a luminescent sensor.

What is called EC50 is the midpoint of the concentration-response curve. Consider `Cc1cc(Cl)ccc1OC(C)C(=O)N[C@H]1CC[C@@H](n2cc(C(=O)N3CCCC3)nn2)CC1` (relative stereo) [Example 4, 2-(4-Chloro-2-methyl-phenoxy)-N-{cis-4-[4-(pyrrolidine-1-carbonyl)-[1,2,3]triazol-1-yl]-cyclohexyl}-propionamide], for which the 50% effective concentration (EC50) is 560 nM and the “fold increase of the Neurokinin B agonistic effect” value (“fold increase” below) came out at 1.7 fold.
Consider `O=C(Cc1c(F)cccc1Cl)N[C@H]1CC[C@@H](n2cc(C(=O)N3CCCC3)nn2)CC1` [Example 1, 2-(2-Chloro-6-fluoro-phenyl)-N-{cis-4-[4-(pyrrolidine-1-carbonyl)-[1,2,3]triazol-1-yl]-cyclohexyl}-acetamide], for which the EC50 turned out to be 3700 nM and the “fold increase” value was 2.3 fold.
Consider `Cc1cccc(-c2cccc(C(=O)N[C@H]3CC[C@@H](n4cc(C(=O)N5CCCC5)nn4)CC3)c2)c1` [Example 2, 3′-Methyl-biphenyl-3-carboxylic acid {cis-4-[4-(pyrrolidine-1-carbonyl)-[1,2,3]triazol-1-yl]-cyclohexyl}-amide], for which the half-maximal effective concentration (EC50) stood at 200 nM and the “fold increase” value worked out at 1.5 fold.
In the case of `O=C(N[C@H]1CC[C@@H](n2cc(C(=O)N3CCCC3)nn2)CC1)c1cccc(-c2ccc(F)cc2)c1` [Example 3, 4′-Fluoro-biphenyl-3-carboxylic acid {cis-4-[4-(pyrrolidine-1-carbonyl)-[1,2,3]triazol-1-yl]-cyclohexyl}-amide], the EC50 is 860 nM and the “fold increase” value was found to be 1.6 fold.
Regarding `COc1ccccc1C(=O)N[C@H]1CC[C@@H](n2cc(C(=O)N3CCCC3)nn2)CC1` [Example 6, 2-Methoxy-N-{cis-4-[4-(pyrrolidine-1-carbonyl)-[1,2,3]triazol-1-yl]-cyclohexyl}-benzamide], the concentration for a half-maximal effect (EC50) was 4200 nM and the “fold increase” value was determined as 3.2 fold.
As for `COc1ccc(C(=O)N[C@H]2CC[C@@H](n3cc(C(=O)N4CCCC4)nn3)CC2)cc1OC` [Example 7, 3,4-Dimethoxy-N-{cis-4-[4-(pyrrolidine-1-carbonyl)-[1,2,3]triazol-1-yl]-cyclohexyl}-benzamide], the EC50 came to 4500 nM and the “fold increase” value is reported as 5.6 fold.
In the same order, the values of `O=C(N[C@H]1CC[C@@H](n2cc(C(=O)N3CCCC3)nn2)CC1)c1ccc(Cl)cc1` [Example 9, 4-Chloro-N-{cis-4-[4-(pyrrolidine-1-carbonyl)-[1,2,3]triazol-1-yl]-cyclohexyl}-benzamide] are 2300 nM and 2.2 fold.
Take `O=C(c1cn([C@H]2CC[C@@H](NC(=O)C3(c4c(F)cccc4Cl)CCCC3)CC2)nn1)N1CCCC1` [Example 17, 1-(2-Chloro-6-fluoro-phenyl)-cyclopentanecarboxylic acid {cis-4-[4-(pyrrolidine-1-carbonyl)-[1,2,3]triazol-1-yl]-cyclohexyl}-amide]: the 50% effective concentration (EC50) came out at 770 nM and the “fold increase” value is given as 1.8 fold.
Take `O=C(Cc1c(F)cccc1Cl)N[C@H]1CC[C@@H](n2cc(C(=O)Nc3ccccc3)nn2)CC1` [Example 19, 1-{cis-4-[2-(2-Chloro-6-fluoro-phenyl)-acetylamino]-cyclohexyl}-1H-[1,2,3]triazole-4-carboxylic acid phenylamide]: the EC50 is 1800 nM and the “fold increase” value is listed as 1.6 fold.
